One substance from patent US20220389058A1, “PEPTIDES AND COMPOSITIONS FOR USE IN COSMETICS AND MEDICINE” (LIPOTRUE, S.L., priority 2019, published 2022) can be followed below.

The test system of one assay is HEKa cells. Briefly: Expression of genes related to epidermal cell cohesion, RT-qPCR in HEKa (Example 9). The following applies: 0.01 mg/mL, 24 hours. The format is cell-based, Human. The method, then:
(§1) A stock solution of the peptide was prepared in water at 1 mg/mL. Working solution was freshly prepared at the specified concentration from stock solution in the corresponding supplemented medium.
RNA (ribonucleic acid) extraction and RT-qPCR (reverse transcription quantitative polymerase chain reaction) were performed. Briefly, HEKa cells were seeded in duplicate (n=2) in 6-well plates at a density of 4×10^5 cells/well and maintained at standard culture conditions (Medium Epilife supplemented with 1% (v/v) EDGS and 1% (v/v) penicillin/streptomycin; 37° C., 95% room humidity, 5% CO2) for 24 hours.
Then, cells were treated with peptide Ac-SEQ ID NO: 1-NH2, Ac-SEQ ID NO: 2-NH2 or Ac-SEQ ID NO: 3-NH2 at the concentration of 0.01 mg/mL for 24 hours. Untreated cells were used as basal or negative control.
Cells were finally lysed, and replicates were pooled together for RNA extraction using Qiagen RNeasy Mini kit following manufacturer's instructions. Purified RNAs were used to generate the corresponding cDNAs (complementary deoxyribonucleic acids) by reverse transcription using a commercial kit High capacity cDNA reverse transcription kit (Applied Biosystems) which served as templates for amplification. RT-qPCR was performed with the panel of appropriate TaqMan assay probes for genes shown in table 1 (plus GAPDH—Glyceraldehyde 3-phosphate dehydrogenase—that was used as housekeeping gene) and 2×gene expression Master Mix using StepOne plus Real-Time PCR instrument. Amplification included 40 cycles of: 15 seconds at 95° C. (denaturation) and 1 minute at 60° C. (Annealing and extension) (Arya, M., Shergill, I. S., Williamson, M., Gommersall, L., Arya, N., Patel, H. R. (2005) Basic principles of real-time quantitative PCR. Expert Rev. Mol. Diagn.; 5(2):209-19; and Jozefczuk, J. and Adjaye, J. (2011) Quantitative real-time PCR-based analysis of gene expression. Methods Enzymol. 500; 99-109).
The obtained data was analysed using the ΔΔCt method, which provides the target gene expression values as fold changes in the treated sample compared with an untreated basal sample. Both samples were normalized with the relative expression of a housekeeping gene GAPDH (Glyceraldehyde 3-phosphate dehydrogenase).
In general terms: Quantitative PCR measures a nucleic acid by following its amplification.

The test system of assay [1] is recombinant mushroom tyrosinase. Briefly: Tyrosinase activity, L-DOPA/dopachrome absorbance (Example 11). The format is biochemical. To be noted: 0.05-2.5 mg/mL (Ac-SEQ ID NO: 4-NH2: 0.005-2.5 mg/mL); 30 minutes preincubation, L-DOPA, 2 hours, absorbance 450 nm; vs non-treated control (100%). The method, then: Briefly, different concentrations of Ac-SEQ ID NO: 1-NH2 (0.05, 0.25, 0.5 and 2.5 mg/mL), Ac-SEQ ID NO: 2-NH2 (0.05, 0.25, 0.5 and 2.5 mg/mL), Ac-SEQ ID NO: 3-NH2 (0.05, 0.25, 0.5 and 2.5 mg/mL) and Ac-SEQ ID NO: 4-NH2 (0.005, 0.025, 0.05, 0.25, 0.5 and 2.5 mg/mL) and the positive control kojic acid (400 and 800 μM) were incubated with recombinant mushroom tyrosinase for 30 minutes before the addition of L-DOPA (L-3,4 dihidroxiphenilalanine, 2.5 mg/mL in PBS). After 2 hours' reaction at room temperature, the absorbance at 450 nm of each well was determined using the microplate reader Multiskan FC (Thermo Fisher Scientific, Mass., USA), which is directly proportional to the amount of dopachrome in the reaction mixture.

The subject of a further assay is human skin explants. The assay can be described thus: Ex vivo methylglyoxal-induced glycation, CML immunostaining (Example 14). The following applies: cream containing 1% (w/v) Ac-SEQ ID NO: 1-NH2, topical 2 mg/cm^2; methylglyoxal 500 μM; after 9 days of culture. The method, then: Briefly, human skin explants from a person were kept in survival in BEM culture medium at 37° C. in a humid, 5% CO2 atmosphere. […] Explants were collected at each timepoint and cut in two parts. Half was fixed in buffered formalin solution and half was frozen at −80° C.
After fixation for 24 hours in buffered formalin, the samples were dehydrated and impregnated in paraffin. 5-μm-thick sections were made using a Leica RM 2125 Minot-type microtome, and the sections were mounted on Superfrost® histological glass slides.

Another assay has as its system HDFa cells. The assay can be described thus: Genes related with response to sleep deprivation, RT-qPCR in HDFa (Example 16). It counts as cell-based, Human. To be noted: 0.01 mg/ml, 24 hours. The method, then:
as §1
RNA (ribonucleic acid) extraction and RT-qPCR (reverse transcription quantitative polymerase chain reaction) were performed. […]
Cells were finally lysed, and replicates were pooled together for RNA extraction using Qiagen RNeasy Mini kit following manufacturer's instructions. […] (Annealing and extension) (Arya, M., Shergill, I. S., Williamson, M., Gommersall, L., Arya, N., Patel, H. R. (2005) Basic principles of real-time quantitative PCR. Expert Rev. Mol. Diagn.; 5(2):209-19; and Jozefczuk, J. and Adjaye, J. (2011) Quantitative real-time PCR-based analysis of gene expression. Methods Enzymol. 500; 99-109).
The obtained data was analysed using the ΔΔCt method, which provides the target gene expression values as fold changes in the treated sample compared with an untreated basal sample. […]

For “Ac-Arg-Arg-Gln-Met-Arg-Glu-NH2 (Ac-RRQMRE-NH2) [Ac-SEQ ID NO: 1-NH2]”, in the assay on HEKa cells, the “CDSN Fold change between treated cells and basal control” value amounted to 1.46 Fold change; the “CLDN1 Fold change between treated cells and basal control” value was 1.57 Fold change; the “CLDN4 Fold change between treated cells and basal control” value was found to be 2.64 Fold change; the “DSC2 Fold change between treated cells and basal control” value was found to be 1.23 Fold change. Also, in the assay with HEKa cells, the “DSP Fold change between treated cells and basal control” value is given as 1.28 Fold change; the “JUP Fold change between treated cells and basal control” value stood at 1.42 Fold change; the “OCLN Fold change between treated cells and basal control” value stood at 1.98 Fold change; the “PCDH1 Fold change between treated cells and basal control” value is recorded as 2.41 Fold change. Further, in the assay on HEKa cells, the “PKP2 Fold change between treated cells and basal control” value worked out at 1.72 Fold change; the “PPL Fold change between treated cells and basal control” value was determined as 1.54 Fold change; the “TJP1 Fold change between treated cells and basal control” value is reported as 1.25 Fold change. Further, the tyrosinase activity result in assay [1] is given as “inhibited tyrosinase in all the concentrations tested”. Further, the “decrease in CML signal when compared with MG-exposed untreated explants” value in the assay on human skin explants is reported as −73%. For the same substance, the “IL1RL1 Fold change between treated cells and basal control” value in the assay with HDFa cells is listed as −1.26 Fold change.
